This note sets out measurements from PMC6747015, “Structure–function study of a novel inhibitor of the casein kinase 1 family in Arabidopsis thaliana” (Plant Direct, 2019).

The target in one test is CKL1 (Arabidopsis thaliana, UniProt P42158). Nature of the test: In vitro CKL1 kinase activity. The test is classed as biochemical. An excerpt: Supplemental Figure3.InvitroCKL1 kinaseactivitywithAMI-331.
In a further test the target is T1, CKL8 (AT5G43320) (Arabidopsis thaliana, UniProt Q9LSX4).
T1 construct: from tissue; host or cells: Arabidopsis seedlings, two weeks old
T1 sequence (Q9LSX4 whole entry): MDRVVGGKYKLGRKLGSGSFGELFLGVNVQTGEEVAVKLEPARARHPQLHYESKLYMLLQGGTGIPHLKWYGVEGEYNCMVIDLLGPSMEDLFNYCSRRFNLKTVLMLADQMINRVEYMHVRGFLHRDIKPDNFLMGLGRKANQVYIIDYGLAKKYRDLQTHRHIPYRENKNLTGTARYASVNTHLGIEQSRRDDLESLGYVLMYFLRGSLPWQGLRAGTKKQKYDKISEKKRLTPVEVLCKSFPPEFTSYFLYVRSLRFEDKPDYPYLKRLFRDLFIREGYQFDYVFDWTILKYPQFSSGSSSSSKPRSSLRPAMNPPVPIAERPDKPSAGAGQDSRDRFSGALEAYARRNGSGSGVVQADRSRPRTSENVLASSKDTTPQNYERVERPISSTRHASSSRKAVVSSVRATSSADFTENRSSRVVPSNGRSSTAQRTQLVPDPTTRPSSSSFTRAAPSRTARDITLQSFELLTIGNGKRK
Nature of the test: AMI‐329 bead binding with AMI‐331 competitor, CKL8. As to the method: (§1) Screening for proteins bound to AMI‐329 beads was done by a method similar to what has previously been described (Uehara et al., 2019). Briefly, two‐week‐old seedlings grown under LD conditions were harvested at time points ZT2, ZT6, ZT9, and ZT17, and stored at −80°C. Proteins from the frozen plant samples were incubated with 0, 5, or 50 µM of AMI‐331 at 4°C for 30 min with rotary mixing. Two technical replicates were used for each experiment. PBS‐washed AMI‐329 beads were added to the protein samples and gently rotated at 4°C for 1 hr. AMI‐329 bead resins were washed with bead buffer (Uehara et al., 2019) six times. The washed resins were suspended in SDS sample buffer and boiled for 8 min. Protein samples were in‐gel‐digested as previously described (Uehara et al., 2019). Peptides were analyzed with a Q Exactive hybrid quadrupole‐orbitrap mass spectrometer (Thermo Fisher Scientific), as described previously (Uehara et al., 2019). […]
(§2) However, another possible mechanism for the strong AMI‐331 biological activity in vivo is that it targets proteins other than the CK1 family for period lengthening. […] It is noteworthy that kinase AT4G08800 is very similar to the CKL family, but the ATP‐binding pocket of mammalian CK1 as determined by its crystal structure (Shinohara et al., 2017) was absent from AT4G08800, as shown in an Araport 11 model (https://www.araport.org). […]

The target of the next test is T2, CKL2 (AT1G72710) (Arabidopsis thaliana, UniProt Q9CAI5).
T2 construct: from tissue; host or cells: Arabidopsis seedlings, two weeks old
T2 sequence (Q9CAI5 whole entry): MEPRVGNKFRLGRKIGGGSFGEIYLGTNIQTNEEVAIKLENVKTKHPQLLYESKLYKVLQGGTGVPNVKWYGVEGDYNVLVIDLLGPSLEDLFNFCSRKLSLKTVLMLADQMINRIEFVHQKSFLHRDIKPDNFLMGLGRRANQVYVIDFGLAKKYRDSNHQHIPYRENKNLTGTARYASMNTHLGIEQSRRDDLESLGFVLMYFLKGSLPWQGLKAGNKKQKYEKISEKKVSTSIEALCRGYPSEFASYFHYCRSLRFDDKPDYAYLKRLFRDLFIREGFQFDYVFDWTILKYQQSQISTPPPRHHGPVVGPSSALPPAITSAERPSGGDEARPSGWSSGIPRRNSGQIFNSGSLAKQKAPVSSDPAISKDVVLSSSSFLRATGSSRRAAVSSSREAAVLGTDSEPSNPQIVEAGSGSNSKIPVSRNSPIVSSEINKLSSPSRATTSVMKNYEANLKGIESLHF
Briefly: AMI‐329 bead binding with AMI‐331 competitor, CKL2. As to the method:
as §1, §2

Test [1] concerns all members of the CK1 family and an additional ten non‐CK1 proteins. Briefly: AMI‐329 bead binding with AMI‐331 competitor, the 23 AMI‐331‐bound proteins. On the set-up: species or system Arabidopsis thaliana. The method, then: as §1, §2
A further test deals with T3, Kinase AT4G34500 (Arabidopsis thaliana, UniProt Q6NKZ9).
T3 construct: from tissue; host or cells: Arabidopsis seedlings, two weeks old
T3 sequence (Q6NKZ9 whole entry): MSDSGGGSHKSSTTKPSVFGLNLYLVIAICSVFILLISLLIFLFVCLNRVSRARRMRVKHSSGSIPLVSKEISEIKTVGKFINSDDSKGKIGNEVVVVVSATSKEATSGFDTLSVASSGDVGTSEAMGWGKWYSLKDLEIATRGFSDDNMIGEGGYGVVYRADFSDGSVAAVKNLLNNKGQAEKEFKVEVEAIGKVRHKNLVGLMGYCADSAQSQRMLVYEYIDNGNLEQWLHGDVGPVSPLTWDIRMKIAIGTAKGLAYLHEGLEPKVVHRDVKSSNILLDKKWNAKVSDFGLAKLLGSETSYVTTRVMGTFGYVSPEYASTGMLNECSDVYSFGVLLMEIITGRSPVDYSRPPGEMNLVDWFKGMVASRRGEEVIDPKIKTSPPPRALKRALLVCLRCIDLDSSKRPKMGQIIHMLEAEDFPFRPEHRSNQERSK
Briefly: AMI‐329 bead binding with AMI‐331 competitor, kinase AT4G34500. The method, then: as §1, §2

The subject of a further test is PRR7. Briefly: RT-qPCR of the CK1 downstream gene PRR7. The test is classed as in vivo, Arabidopsis. The note with it: 6 hr. The method, then:
Arabidopsis Col‐0 seedlings that had been grown under constant light conditions for […] were immersed in 10 or 50 µM of the GSK‐3, SHAGGY‐related, and BIN2 kinase inhibitor Bikinin (SML0094, Sigma) (De Rybel et al., 2009), […], or DMSO as control for 6 hr. Three biological replicates were used for each assay. Harvested seedlings were frozen in liquid nitrogen and crushed with zirconia beads in a Tissue Lyser II, and RNA was isolated with Illustra RNAspin (25‐0500‐72, GE Healthcare). RT‐qPCR was performed as described previously (Nakamichi et al., 2010) using an Eco Real‐Time PCR System (Illumina). Gene expression was normalized against IPP2, and maximal values were set to 1. Primers for detecting IPP2, PRR7, GR60ox2, and CPD were described previously (De Rybel et al., 2009; Kamioka et al., 2016).
Because the ATSK family was identified by the molecular probe assay as potential targets of AMI‐331, even though the affinities between AMI‐331 and ATSKs were not as high as between AMI‐331 and CK1, we used the ATSK inhibitor Bikinin to determine if AMI‐331 treatment affects the expression of genes downstream of ATSKs (De Rybel et al., 2009). Four‐day‐old Arabidopsis seedlings grown under constant light conditions were treated with Bikinin or AMI‐331 for 6 hr, and mRNA extracted from seedlings samples was analyzed by RT‐qPCR.
For orientation: In qPCR the cycle at which signal appears reflects the starting amount.

The target in another test is T4, CKL9 (AT1G03930) (Arabidopsis thaliana, UniProt Q9ZWB3).
T4 construct: from tissue; host or cells: Arabidopsis seedlings, two weeks old
T4 sequence (Q9ZWB3 whole entry): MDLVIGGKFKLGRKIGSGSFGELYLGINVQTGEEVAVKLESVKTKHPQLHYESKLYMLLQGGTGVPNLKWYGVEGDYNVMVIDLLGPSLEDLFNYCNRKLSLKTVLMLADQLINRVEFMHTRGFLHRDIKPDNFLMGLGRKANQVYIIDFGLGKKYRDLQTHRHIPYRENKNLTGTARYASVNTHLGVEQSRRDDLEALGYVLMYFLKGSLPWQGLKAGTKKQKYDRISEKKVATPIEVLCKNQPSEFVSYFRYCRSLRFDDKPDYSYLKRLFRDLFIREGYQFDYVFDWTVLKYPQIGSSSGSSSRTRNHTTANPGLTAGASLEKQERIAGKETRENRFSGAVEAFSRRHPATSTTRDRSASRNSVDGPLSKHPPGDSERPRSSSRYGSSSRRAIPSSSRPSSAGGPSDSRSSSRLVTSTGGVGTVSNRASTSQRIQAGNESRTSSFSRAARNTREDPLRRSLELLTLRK
Nature of the test: AMI‐329 bead binding with AMI‐331 competitor, CKL9. The method, then: as §1, §2

Chain of CKL1 (P42158 whole entry): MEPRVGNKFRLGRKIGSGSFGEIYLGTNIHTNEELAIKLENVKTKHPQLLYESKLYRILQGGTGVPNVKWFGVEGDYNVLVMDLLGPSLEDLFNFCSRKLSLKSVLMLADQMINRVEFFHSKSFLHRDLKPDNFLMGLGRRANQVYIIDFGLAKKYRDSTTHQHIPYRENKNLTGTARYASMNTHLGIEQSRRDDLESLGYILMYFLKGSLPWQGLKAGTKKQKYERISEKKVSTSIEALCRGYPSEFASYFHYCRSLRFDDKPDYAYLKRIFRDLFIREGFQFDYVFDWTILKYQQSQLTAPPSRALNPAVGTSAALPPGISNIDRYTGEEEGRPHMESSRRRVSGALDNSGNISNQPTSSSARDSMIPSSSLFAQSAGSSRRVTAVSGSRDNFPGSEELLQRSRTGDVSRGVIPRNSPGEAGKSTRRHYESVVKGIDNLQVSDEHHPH

A word on the IC50: it is the concentration that gives 50% inhibition. A low value points to greater potency in that assay. `C#CCn1c2c(c(Br)c1-c1ccncc1)C(=O)NCC2.Cl` [AMI‐331] displayed an IC50 against CKL1 of 1400 nM. The “Spectra (PSMs) AMI‐329 beads bound” value at CKL8 (AT5G43320) (competitor AMI‐331 5 µM) is recorded as 0 PSMs; at CKL8 (AT5G43320) (competitor AMI‐331 50 µM), 0 PSMs; at CKL2 (AT1G72710) (competitor AMI‐331 5 µM) it was 1 PSMs; at CKL2 (AT1G72710) (competitor AMI‐331 50 µM), 0 PSMs; on Kinase AT4G34500 (competitor AMI‐331 5 µM), 0 PSMs; at Kinase AT4G34500 (competitor AMI‐331 50 µM) it was 0 PSMs. The “Spectra (PSMs) AMI‐329 beads bound” value at CKL9 (AT1G03930) (competitor AMI‐331 5 µM) is 1 PSMs; on CKL9 (AT1G03930) (competitor AMI‐331 50 µM), 0 PSMs. For the same molecule, in test [1] (5 µM AMI‐331 as competitor), the “Spectra on AMI‐329 beads compared to the control sample without competitor” value is on record as 0% to 7%. The “Spectra on AMI‐329 beads” value in test [1] (50 µM AMI‐331 as competitor) is recorded as “absent”. The PRR7 transcript abundance result in the test on PRR7 (1 µM) is reported as “significantly decreased”; in the test with PRR7 (5 and 25 µM), “decreased”.
